# Measured values published in paper PMC1521118 (Environmental Health Perspectives, 1993).
# Like-named read-outs stand apart in the source and are kept apart here.
# Tests used:
# [1] = Sprague-Dawley rats; cited from earlier work
# [2] = system: Salmonella typhimurium TA98
# [3] = system: sarcoma 180 ascites cells; conditions: mice bearing sarcoma 180 ascites cells; cited from earlier work
# [4] = system: Salmonella typhimurium TA97
# [5] = system: mouse sarcoma 180 cells; conditions: mouse sarcoma 180 cells in vitro; cited from earlier work
# [6] = system: Salmonella typhimurium TA98; conditions: ref 35 (McCartney et al.); cited from earlier work
# [7] = 10 female Wistar rats; at 15 months; cited from earlier work
# [8] = rat, in vivo; cited from earlier work
# [9] = system: sulfotransferase; conditions: cited from earlier work
# [10] = system: cytochrome P450; conditions: phenobarbital-inducible cytochrome P450, presumably CYP2B; cited from earlier work
# [11] = system: Bacillus subtilis-transforming DNA; conditions: reactive species toward Bacillus subtilis-transforming DNA; cited from earlier work
# [12] = with (+) Aroclor 1254 rat hepatic S9 10% v/v, 100 ng/plate
# [13] = absence of S9, 100 ng/plate or less
smiles,measurement,setting,value
ONc1ncnc2nc[nH]c12 [6-Hydroxylaminopurine],oncogenicity,[1],completely inactive
same,toxicity toward TA98,[2]; 1 ng/plate,still toxic
same,toxicity toward TA98,[2]; 100 ng/plate,toxic
same,toxicity toward TA98,[2]; concentration not given,extremely toxic
same,"histidine revertants/plate, TA98","[2]; with (+) S9, 1 ng/plate",toxic
same,"histidine revertants/plate, TA98","[2]; without (-) S9, 1 ng/plate",toxic
same,survival time,[3],prolonged the survival time
same,"reversion rate relative to spontaneous reversion rate, TA97","[4]; 1 ng/plate, without metabolic activation",twice the spontaneous reversion rate
same,toxicity toward TA97,[4]; 100 ng/plate,toxic
same,"histidine revertants/plate, TA97","[4]; with (+) S9, 1 ng/plate",113 + 4 histidine revertants/plate
same,effect on cells,[5],induced mitotic inhibition and nuclear degeneration
same,mutagenicity toward TA98,[6],inactive
same,tumors produced,[7],only one tumor
Cn1cnc2c(N)ncnc21 [9-Methyladenine],"histidine revertants/plate, TA98","[2]; without (-) S9, 100 ng/plate",21 + 6 histidine revertants/plate
same,"histidine revertants/plate, TA97",[4]; [12],88 + 4 histidine revertants/plate
Nc1ncnc2c1ncn2Cc1ccccc1 [9-Benzyladenine],"histidine revertants/plate, TA98","[2]; with (+) S9, 100 ng/plate",131 + 18 histidine revertants/plate
ONc1ncnc2c1ncn2Cc1ccccc1 [9-Benzyl-6-hydroxylaminopurine],mutagenic activity toward TA98 (in words),[2]; [13],inactive
same,mutagenic activity toward TA97 (in words),[4]; [13],highly active
Nc1c2[nH]cnc2nc[n+]1[O-] [Adenine-1-N-oxide],tumor production,[8],failed to produce tumors
same,activity as a sulfate acceptor,[9],inactive
same,"histidine revertants/plate, TA98","[2]; without (-) S9, 100 ng/plate",19 + 6 histidine revertants/plate
Nc1ncnc2nc[nH]c12 [Adenine],"histidine revertants/plate, TA98","[2]; with (+) S9, 100 ng/plate",76 + 11 histidine revertants/plate
same,"histidine revertants/plate, TA97",[4]; [12],104 + 12 histidine revertants/plate
same,oxidation to adenine-1-N-oxide,[10],failed to oxidize
Cn1cnc2c(N)[n+]([O-])cnc21 [9-Methyladenine-1-N-oxide],"histidine revertants/plate, TA98","[2]; with (+) S9, 100 ng/plate",118 + 9 histidine revertants/plate
"Nc1ccc2cc3ccccc3cc2c1 [2-Aminoanthracene, reference compound]","histidine revertants/plate, TA98",[2]; Salmonella typhimurium,865 histidine revertants/plate
same,"histidine revertants/plate, TA97",[4]; Salmonella typhimurium,600 histidine revertants/plate
CC(=O)On1cnc2ncnc-2c1N [1-acetoxyadenine],mutagenicity,[11],weak mutagen
